In experiment [1] the target is LcrF (VirF) (Yersinia pestis, UniProt P28808). Briefly: biochemical. The format is binding, Y. pseudotuberculosis.
Experiment [2] has as its target T1, ExsA (Pseudomonas aeruginosa, UniProt P26993).
T1 construct: made in house
T1 sequence (P26993 1-278): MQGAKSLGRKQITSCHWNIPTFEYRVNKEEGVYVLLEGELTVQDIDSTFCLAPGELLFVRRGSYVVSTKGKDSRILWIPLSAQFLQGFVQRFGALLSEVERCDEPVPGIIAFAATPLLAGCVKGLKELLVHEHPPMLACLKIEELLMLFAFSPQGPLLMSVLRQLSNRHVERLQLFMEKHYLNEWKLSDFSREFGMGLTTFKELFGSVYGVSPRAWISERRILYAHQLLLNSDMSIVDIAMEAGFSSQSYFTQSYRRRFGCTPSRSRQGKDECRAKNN
Put plainly: Inhibition of ExsA-DNA binding, cell-free chemiluminescence assay. Set-up: species or system P. aeruginosa.

Experiment [3] deals with Y. pseudotuberculosis cytotoxicity toward J774 cells. Put plainly: microbe, parasite or virus in culture. Conditions: Yersinia pseudotuberculosis, J774, read-out: % Cytotoxicity.
Experiment [4] has as its system P. aeruginosa cytotoxicity toward J774 cells. Put plainly: Inhibition of P. aeruginosa cytotoxicity toward J774 macrophage-like cells, whole cell LDH release assay (CytoTox 96). Conditions: Pseudomonas aeruginosa, J774, read-out: % Cytotoxicity. Set-up: dose or concentration left out as unconfirmed. For orientation: LDH leaks from cells whose membrane has failed.

pIC50: −log10 of the molar value.

The term pIC50 denotes the negative decadic logarithm of the IC50, by convention in mol/L.

Sequence of LcrF (VirF) (P28808 whole entry, looked up): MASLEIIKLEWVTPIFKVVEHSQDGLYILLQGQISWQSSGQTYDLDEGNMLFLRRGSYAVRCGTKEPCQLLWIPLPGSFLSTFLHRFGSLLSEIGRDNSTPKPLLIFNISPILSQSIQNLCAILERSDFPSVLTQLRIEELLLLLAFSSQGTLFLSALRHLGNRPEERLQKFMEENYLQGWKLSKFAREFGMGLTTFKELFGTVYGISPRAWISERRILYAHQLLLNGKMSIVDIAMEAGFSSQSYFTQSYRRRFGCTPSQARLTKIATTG

With `O=C(Nc1ccc(-c2nc3ccc([N+](=O)[O-])cc3n2O)cc1)c1ccc(OCC(F)(F)F)nc1` [Compound X, N-[4-(1-Hydroxy-6-nitro-1H-benzoimidazol-2-yl)-phenyl]-6-(2,2,2-trifluoro-ethoxy)-nicotinamide], the pIC50 in experiment [1] and in experiment [2] was 4.30 to 4.60 each time. Besides, the activity at 50 µg/mL in experiment [3] lay in the range of 75 to 99%. Besides, the activity in experiment [4] was 75 to 99%.

On to `CC(=O)c1ccc2nc(-c3ccc(NC(=O)/C=C/c4ccc(F)cc4)cc3)n(O)c2c1` [Compound AB, (E)-N-[4-(6-Acetyl-1-hydroxy-1H-benzoimidazol-2-yl)-phenyl]-3-(4-fluoro-phenyl)-acrylamide], for which the pIC50 in experiment [1] is 4.30 to 4.60. In experiment [3], the activity at 50 µg/mL lay within 75 to 99%. For the same molecule, the activity in experiment [4] fell in the range of 75 to 99%.

`O=C(/C=C/c1ccc(F)cc1)Nc1ccc(-c2nc3ccc(C(=O)O)cc3n2O)cc1` [Compound AI, 2-{4-[(E)-3-(4-Fluoro-phenyl)-acryloylamino]-phenyl}-3-hydroxy-3H-benzoimidazole-5-carboxylic acid] showed a pIC50 in experiment [1] of 4.30 to 4.60. For the same molecule, the activity at 50 µg/mL in experiment [3] was under 75%. For the same molecule, the activity in experiment [4] was 75 to 99%.

Regarding `O=C(O)Cc1cc([N+](=O)[O-])cc2c1nc(-c1ccc(NC(=O)/C=C/c3ccc(F)cc3)cc1)n2O` [AH], the pIC50 in experiment [1] is 4.60 to 5.00. The activity at 50 µg/mL in experiment [3] fell in the range of 75 to 99%. The activity in experiment [4] was in the range of 75 to 99%.

On to `CSc1ccc2nc(-c3ccc(NC(=O)/C=C/c4ccc(C(C)=O)cc4)cc3)n(O)c2c1` [Compound U, (E)-3-(4-Acetyl-phenyl)-N-[4-(1-hydroxy-6-methylsulfanyl-1H-benzoimidazol-2-yl)-phenyl]-acrylamide], for which the pIC50 in experiment [1] was under 4.30; in experiment [2] it was 4.60 to 5.00. Further, in experiment [3], the activity at 50 µg/mL is 75 to 99%. Further, the activity in experiment [4] was in the range of 75 to 99%.

As to `O=C(Nc1ccc(-c2nc3ccc([N+](=O)[O-])cc3n2O)cc1)c1ccc(C(O)(O)C(F)(F)F)cc1` [E], the pIC50 in experiment [1] and in experiment [2] was under 4.30 each time. For the same molecule, in experiment [3], the activity at 50 µg/mL was 75 to 99%. Besides, the activity in experiment [4] fell in the range of 75 to 99%.

With `O=C(/C=C/c1ccc(C(O)(O)C(F)(F)F)cc1)Nc1ccc(-c2nc3ccc([N+](=O)[O-])cc3n2O)cc1` [K], the pIC50 in experiment [1] and in experiment [2] was under 4.30 in each case. Further, the activity at 50 µg/mL in experiment [3] was in the range of 75 to 99%. Moreover, the activity in experiment [4] lay in the range of 75 to 99%.

With `O=C(/C=C/c1ccc(F)cc1)Nc1ccc(-c2nc3ccccc3n2O)cc1` [Compound AE, (E)-3-(4-Fluoro-phenyl)-N-[4-(1-hydroxy-1H-benzoimidazol-2-yl)-phenyl]-acrylamide], the pIC50 in experiment [1] is under 4.30. Further, in experiment [3], the activity at 50 µg/mL fell in the range of 75 to 99%. Further, in experiment [4], the activity was in the range of 75 to 99%.

For `CC(=O)c1ccc(C(=O)Nc2ccc(-c3nc4c(CC(=O)O)cc([N+](=O)[O-])cc4n3O)cc2)cc1` [Compound R, {2-[4-(4-Acetyl-benzoylamino)-phenyl]-1-hydroxy-6-nitro-1H-benzoimidazol-4-yl}-acetic acid], the pIC50 in experiment [1] and in experiment [2] was 4.30 to 4.60 throughout. Also, the activity at 50 µg/mL in experiment [3] was 75 to 99%. Further, the activity in experiment [4] was in the range of 75 to 99%.

Take `CN(C)c1ccc(/C=C/C(=O)Nc2ccc(-c3nc4ccc([N+](=O)[O-])cc4n3O)cc2)cn1` [Z]: the pIC50 in experiment [1] and in experiment [2] was under 4.30 each time. Besides, the activity at 50 µg/mL in experiment [3] lay within 75 to 99%. Besides, the activity in experiment [4] was 75 to 99%.

Take `O=C(Nc1ccc(-c2nc3ccc([N+](=O)[O-])cc3n2O)cc1)c1cccc(N2CCOCC2)n1` [Compound N, 6-Morpholin-4-yl-pyridine-2-carboxylic acid [4-(1-hydroxy-6-nitro-1H-benzoimidazol-2-yl)-phenyl]-amide]: the values for the pIC50 in experiment [1] and in experiment [2] were under 4.30 and 4.60 to 5.00, respectively. Moreover, the activity at 50 µg/mL in experiment [3] was 75 to 99%. Besides, in experiment [4], the activity lay in the range of 75 to 99%.

With `Cc1nc(C(F)(F)F)ccc1C(=O)Nc1ccc(-c2nc3ccc([N+](=O)[O-])cc3n2O)cc1` [Compound W, N-[4-(1-Hydroxy-6-nitro-1H-benzoimidazol-2-yl)-phenyl]-2-methyl-6-trifluoromethyl-nicotinamide], the negative logarithm of the IC50 (pIC50) in experiment [1] and in experiment [2] was under 4.30 each time. In addition, in experiment [3], the activity at 50 µg/mL lay within 75 to 99%. In experiment [4], the activity lay within 75 to 99%.

Take `O=C(/C=C/c1ccc(F)cc1)Nc1ccc(-c2nc3ccc(F)cc3n2O)cc1` [Compound AC, (E)-N-[4-(6-Fluoro-1-hydroxy-1H-benzoimidazol-2-yl)-phenyl]-3-(4-fluoro-phenyl)-acrylamide]: in experiment [1], the pIC50 was under 4.30. In addition, in experiment [3], the activity at 50 µg/mL was in the range of 75 to 99%. In experiment [4], the activity was 75 to 99%.

As to `N#Cc1ccc2nc(-c3ccc(NC(=O)c4ccc(C(O)(O)C(F)(F)F)cc4)cc3)n(O)c2c1` [F], the values for the pIC50 in experiment [1] and in experiment [2] were under 4.30 and 4.60 to 5.00, respectively. Moreover, the activity at 50 µg/mL in experiment [3] fell in the range of 75 to 99%. In experiment [4], the activity lay within 75 to 99%.

Consider `O=C(O)Cc1cc([N+](=O)[O-])cc2c1nc(-c1ccc(NC(=O)c3ccc(N4CCOCC4)nc3)cc1)n2O` [Q], for which the pIC50 in experiment [1] and in experiment [2] was 4.30 to 4.60 throughout. In addition, the activity at 50 µg/mL in experiment [3] is 75 to 99%. The activity in experiment [4] lay in the range of 75 to 99%.

In the case of `O=C(Nc1ccc(-c2nc3ccc([N+](=O)[O-])cc3n2O)cc1)c1ccc(N2CCCCC2)nc1` [S], the figures for the pIC50 in experiment [1] and in experiment [2] were under 4.30 and 4.30 to 4.60, respectively. Moreover, the activity at 50 µg/mL in experiment [3] was 75 to 99%. Further, in experiment [4], the activity lay in the range of 75 to 99%.

In experiment [1], `O=C(/C=C/c1ccc(F)cc1)Nc1ccc(-c2nc3ccc(Cl)cc3n2O)cc1` [AG] showed a pIC50 of under 4.30. Further, the activity at 50 µg/mL in experiment [3] was in the range of 75 to 99%. Further, in experiment [4], the activity lay in the range of 75 to 99%.

Regarding `O=C(O)Cc1cc([N+](=O)[O-])cc2c1nc(-c1ccc(NC(=O)c3ccc(-n4ccnc4)cc3)cc1)n2O` [Compound AA, {1-Hydroxy-2-[4-(4-imidazol-1-yl-benzoylamino)-phenyl]-6-nitro-1H-benzoimidazol-4-yl}-acetic acid], the pIC50 in experiment [1] was over 5.00. Moreover, the activity at 50 µg/mL in experiment [3] was under 75%. The activity in experiment [4] was under 75%.

Regarding `O=C(Nc1ccc(-c2nc3ccc([N+](=O)[O-])cc3n2O)cc1)c1ccnc(N2CCOCC2)c1` [Compound T], the pIC50 in experiment [1] and in experiment [2] was under 4.30 in each case. Also, in experiment [3], the activity at 50 µg/mL is under 75%. The activity in experiment [4] is 75 to 99%.

`CS(=O)(=O)c1ccc2nc(-c3ccc(NC(=O)/C=C/c4ccc(F)cc4)cc3)n(O)c2c1` [Compound AD, (E)-3-(4-Fluoro-phenyl)-N-[4-(1-hydroxy-6-methanesulfonyl-1H-benzoimidazol-2-yl)-phenyl]-acrylamide] gave a pIC50 in experiment [1] of under 4.30. Further, the activity at 50 µg/mL in experiment [3] lay within 75 to 99%. The activity in experiment [4] fell in the range of 75 to 99%.

Turning to `N#Cc1ccc2nc(-c3ccc(NC(=O)/C=C/c4ccc(C(O)(O)C(F)(F)F)cc4)cc3)n(O)c2c1` [L], the pIC50 in experiment [1] was under 4.30; in experiment [2], 4.60 to 5.00. In addition, the activity at 50 µg/mL in experiment [3] fell in the range of 75 to 99%. Also, the activity in experiment [4] was in the range of 75 to 99%.

Take `O=C(/C=C/c1ccc(F)cc1)Nc1ccc(-c2nc3ccc(C(F)(F)F)cc3n2O)cc1` [Compound AF, (E)-3-(4-Fluoro-phenyl)-N-[4-(1-hydroxy-6-trifluoromethyl-1H-benzoimidazol-2-yl)-phenyl]-acrylamide]: the negative logarithm of the IC50 (pIC50) in experiment [1] was under 4.30. Also, the activity at 50 µg/mL in experiment [3] was 75 to 99%. Besides, the activity in experiment [4] was in the range of 75 to 99%.
